Results as given in the NIST ThermoML archive (doi:10.1021/acs.jced.5b00407).

Columns and labels:
[1] = mn = molality of the nth substance listed, in mol/kg; conditions: 101.3 kPa, Liquid; for viscosity: Capillary tube (Ostwald / Ubbelohde) method; for mass density: Vibrating tube method
[2] = refractive index (Na D-line) (dimensionless); mn = molality of the nth substance listed, in mol/kg; conditions: 101.3 kPa, Liquid, Standard Abbe refractometry

O=C([O-])[C@H](O)[C@@H](O)[C@H](O[C@@H]1O[C@H](CO)[C@H](O)[C@H](O)[C@H]1O)[C@H](O)CO.[Na+] [sodium lactobionate] + O
Conditions | mass density, [1] [kg/m3] | refractive index, [2] | viscosity, [1] [mPa·s]
288.15 K, m1 = 0.0251 | – | – | 1.157
288.15 K, m1 = 0.0502 | 1010.5 | – | 1.177
288.15 K, m1 = 0.0753 | 1015.2 | – | 1.211
288.15 K, m1 = 0.1 | 1020.1 | – | 1.257
288.15 K, m1 = 0.126 | 1024.5 | – | 1.286
288.15 K, m1 = 0.151 | 1029.1 | – | 1.332
288.15 K, m1 = 0.176 | 1034.1 | – | 1.374
288.15 K, m1 = 0.201 | 1039 | – | 1.432
293.15 K, m1 = 0.0251 | – | 1.3331 | 1.018
293.15 K, m1 = 0.0502 | 1009.1 | 1.3344 | 1.036
293.15 K, m1 = 0.0753 | 1013.9 | 1.336 | 1.066
293.15 K, m1 = 0.1 | 1018.9 | 1.3376 | 1.106
293.15 K, m1 = 0.126 | 1023.3 | 1.3392 | 1.132
293.15 K, m1 = 0.151 | 1028.1 | 1.3406 | 1.171
293.15 K, m1 = 0.176 | 1033 | 1.3421 | 1.208
293.15 K, m1 = 0.201 | 1037.7 | 1.3435 | 1.26
298.15 K, m1 = 0.0251 | – | 1.3326 | 0.9041
298.15 K, m1 = 0.0502 | 1007.6 | 1.3339 | 0.9201
298.15 K, m1 = 0.0753 | 1012.6 | 1.3354 | 0.9457
298.15 K, m1 = 0.1 | 1017.7 | 1.337 | 0.9824
298.15 K, m1 = 0.126 | 1022.1 | 1.3385 | 1.006
298.15 K, m1 = 0.151 | 1026.9 | 1.34 | 1.041
298.15 K, m1 = 0.176 | 1031.8 | 1.3415 | 1.074
298.15 K, m1 = 0.201 | 1036.4 | 1.343 | 1.119
303.15 K, m1 = 0.0251 | – | 1.3321 | 0.8091
303.15 K, m1 = 0.0502 | 1006.2 | 1.3334 | 0.8233
303.15 K, m1 = 0.0753 | 1011.2 | 1.3348 | 0.8464
303.15 K, m1 = 0.1 | 1016.4 | 1.3364 | 0.8796
303.15 K, m1 = 0.126 | 1020.8 | 1.3378 | 0.9001
303.15 K, m1 = 0.151 | 1025.5 | 1.3393 | 0.9321
303.15 K, m1 = 0.176 | 1030.3 | 1.3409 | 0.9614
303.15 K, m1 = 0.201 | 1035.1 | 1.3425 | 1.002
308.15 K, m1 = 0.0251 | – | 1.3316 | 0.7289
308.15 K, m1 = 0.0502 | 1004.5 | 1.3328 | 0.7415
308.15 K, m1 = 0.0753 | 1009.7 | 1.3342 | 0.7623
308.15 K, m1 = 0.1 | 1014.9 | 1.3357 | 0.7921
308.15 K, m1 = 0.126 | 1019.4 | 1.3371 | 0.8111
308.15 K, m1 = 0.151 | 1023.9 | 1.3387 | 0.8399
308.15 K, m1 = 0.176 | 1028.8 | 1.3403 | 0.8655
308.15 K, m1 = 0.201 | 1033.5 | 1.342 | 0.9029
313.15 K, m1 = 0.0251 | – | 1.331 | 0.6612
313.15 K, m1 = 0.0502 | 1003.1 | 1.3322 | 0.6729
313.15 K, m1 = 0.0753 | 1008.1 | 1.3335 | 0.692
313.15 K, m1 = 0.1 | 1013.3 | 1.335 | 0.7187
313.15 K, m1 = 0.126 | 1017.8 | 1.3364 | 0.7357
313.15 K, m1 = 0.151 | 1022.1 | 1.338 | 0.7622
313.15 K, m1 = 0.176 | 1027.2 | 1.3397 | 0.7851
313.15 K, m1 = 0.201 | 1031.8 | 1.3415 | 0.8191
318.15 K, m1 = 0.0251 | – | 1.3304 | 0.6029
318.15 K, m1 = 0.0502 | 1001.6 | 1.3316 | 0.6136
318.15 K, m1 = 0.0753 | 1006.5 | 1.3329 | 0.6313
318.15 K, m1 = 0.1 | 1011.5 | 1.3343 | 0.6556
318.15 K, m1 = 0.126 | 1015.9 | 1.3357 | 0.6711
318.15 K, m1 = 0.151 | 1020.5 | 1.3373 | 0.6951
318.15 K, m1 = 0.176 | 1025.3 | 1.3391 | 0.7157
318.15 K, m1 = 0.201 | 1030 | 1.3409 | 0.7469
323.15 K, m1 = 0.0251 | – | 1.3297 | 0.5523
323.15 K, m1 = 0.0502 | 999.8 | 1.3309 | 0.5625
323.15 K, m1 = 0.0753 | 1004.7 | 1.3322 | 0.5789
323.15 K, m1 = 0.1 | 1009.5 | 1.3336 | 0.6009
323.15 K, m1 = 0.126 | 1013.9 | 1.3349 | 0.6151
323.15 K, m1 = 0.151 | 1018.4 | 1.3365 | 0.6372
323.15 K, m1 = 0.176 | 1023.2 | 1.3384 | 0.6565
323.15 K, m1 = 0.201 | 1028 | 1.3404 | 0.6849
